In patent US9302988B2, “Fluoromethyl-substituted pyrrole carboxamides” (GRÜNENTHAL GMBH, priority 2012, dated 2016):

Target: T1, Human CaV2.2 channels (Homo sapiens, UniProt Q00975)
T1 construct: expressed in transfected cells
Experiment: Fluorescent assay for CaV2.2 channels using potassium depolarization to induce channel opening (FLIPR, Fluo-4)
Assay type: cell-based
Details: 3 μM test compound, 30 mM KCl, HEK293 cells stably expressing human CaV2.2; read-out: %-Inhib (CaV2.2) @3 μM @30 mM KCl
From the text: In the process, the Ca^2+ influx is quantified in the FLIPR assay with the aid of a Ca^2+-sensitive dye (type Fluo-4, Molecular Probes Europe BV, Leiden, the Netherlands) in a fluorescent imaging plate reader (FLIPR 3, Molecular Devices, Sunnyvale, USA), as described hereinafter.
2.1 Fluorescent Assay for CaV2.2 Channels Using Potassium Depolarization to Induce Channel Opening
Human CaV2.2 channels were stably expressed in HEK293 cells together with alpha2-delta and beta subunits of voltage gated calcium channels. In addition, an inwardly rectifying potassium channel (Kir2.3) was stably expressed in these cells to augment control of the cell membrane potential by the concentration of extracellular potassium ions. Raise of the extracellular potassium concentration leads to depolarization of the membrane potential and thus regulates the voltage dependent state of CaV2.2 channels. For preparation, cells were seeded in black poly-D-lysine coated 96-well plates (Becton Dickinson, Biocoat 4640) in 100 μl medium [500 ml DMEM/F-12 plus Glutamax (Invitrogen 31331-093) plus 5.5 ml MEM NEAA 100× (Invitrogen 11140-035) plus 50 ml FBS decomplemented (Invitrogen 10270-106) plus 4.4 ml Geneticin (Invitrogen 10131-027) plus 1.1 ml Hygromycin B (Invitrogen 10687-010) plus 68.75 μl Puromycin (Clontech, 631306)] at a cell density of 45.000 cells per well.
Plates were incubated at 37° C. (5% CO2) for 20 to 23 hours. On the day of experiment medium was discarded and cells were loaded with Fluo 4 by addition of 100 μl of basic assay buffer (10 mM HEPES, 30 mM KCl, 120 mM NaCl, 0.8 mM CaCl2, 1.7 mM MgCl2, 10 mM Glucose, 0.1% BSA. pH 7.4) containing 2 μM Fluo 4 (Molecular Probes; F-14201), 0.01% pluronic acid (Molecular Probes; P-6866) and 2.5 mM probenecid (Molecular Probes; P36400). Cells were incubated in the dark at 25° C. for 60 min. Then the dye containing buffer was discarded and 100 μl basic assay buffer was added. Subsequently cells were incubated in the dark at 25° C. for 15 min. 25 μl of basic assay buffer with or without test compound were added and cells were incubated again in the dark at 25° C. for 15 min. Fluorescence intensity was measured on a FLIPR 3 instrument (Molecular Devices Corp., Sunnyvale, Calif.) with excitation at 480 nm and emission at 535 nm. After continuously reading fluorescence for 30 sec, 50 μl of basic assay buffer containing 210 mM KCl (NaCl omitted) were added for depolarization. Peak fluorescent signal intensity was determined and the amplitude of the peak signal, normalized to base line, was used to measure channel inhibition by test compounds.

T1 sequence (Q00975 whole entry): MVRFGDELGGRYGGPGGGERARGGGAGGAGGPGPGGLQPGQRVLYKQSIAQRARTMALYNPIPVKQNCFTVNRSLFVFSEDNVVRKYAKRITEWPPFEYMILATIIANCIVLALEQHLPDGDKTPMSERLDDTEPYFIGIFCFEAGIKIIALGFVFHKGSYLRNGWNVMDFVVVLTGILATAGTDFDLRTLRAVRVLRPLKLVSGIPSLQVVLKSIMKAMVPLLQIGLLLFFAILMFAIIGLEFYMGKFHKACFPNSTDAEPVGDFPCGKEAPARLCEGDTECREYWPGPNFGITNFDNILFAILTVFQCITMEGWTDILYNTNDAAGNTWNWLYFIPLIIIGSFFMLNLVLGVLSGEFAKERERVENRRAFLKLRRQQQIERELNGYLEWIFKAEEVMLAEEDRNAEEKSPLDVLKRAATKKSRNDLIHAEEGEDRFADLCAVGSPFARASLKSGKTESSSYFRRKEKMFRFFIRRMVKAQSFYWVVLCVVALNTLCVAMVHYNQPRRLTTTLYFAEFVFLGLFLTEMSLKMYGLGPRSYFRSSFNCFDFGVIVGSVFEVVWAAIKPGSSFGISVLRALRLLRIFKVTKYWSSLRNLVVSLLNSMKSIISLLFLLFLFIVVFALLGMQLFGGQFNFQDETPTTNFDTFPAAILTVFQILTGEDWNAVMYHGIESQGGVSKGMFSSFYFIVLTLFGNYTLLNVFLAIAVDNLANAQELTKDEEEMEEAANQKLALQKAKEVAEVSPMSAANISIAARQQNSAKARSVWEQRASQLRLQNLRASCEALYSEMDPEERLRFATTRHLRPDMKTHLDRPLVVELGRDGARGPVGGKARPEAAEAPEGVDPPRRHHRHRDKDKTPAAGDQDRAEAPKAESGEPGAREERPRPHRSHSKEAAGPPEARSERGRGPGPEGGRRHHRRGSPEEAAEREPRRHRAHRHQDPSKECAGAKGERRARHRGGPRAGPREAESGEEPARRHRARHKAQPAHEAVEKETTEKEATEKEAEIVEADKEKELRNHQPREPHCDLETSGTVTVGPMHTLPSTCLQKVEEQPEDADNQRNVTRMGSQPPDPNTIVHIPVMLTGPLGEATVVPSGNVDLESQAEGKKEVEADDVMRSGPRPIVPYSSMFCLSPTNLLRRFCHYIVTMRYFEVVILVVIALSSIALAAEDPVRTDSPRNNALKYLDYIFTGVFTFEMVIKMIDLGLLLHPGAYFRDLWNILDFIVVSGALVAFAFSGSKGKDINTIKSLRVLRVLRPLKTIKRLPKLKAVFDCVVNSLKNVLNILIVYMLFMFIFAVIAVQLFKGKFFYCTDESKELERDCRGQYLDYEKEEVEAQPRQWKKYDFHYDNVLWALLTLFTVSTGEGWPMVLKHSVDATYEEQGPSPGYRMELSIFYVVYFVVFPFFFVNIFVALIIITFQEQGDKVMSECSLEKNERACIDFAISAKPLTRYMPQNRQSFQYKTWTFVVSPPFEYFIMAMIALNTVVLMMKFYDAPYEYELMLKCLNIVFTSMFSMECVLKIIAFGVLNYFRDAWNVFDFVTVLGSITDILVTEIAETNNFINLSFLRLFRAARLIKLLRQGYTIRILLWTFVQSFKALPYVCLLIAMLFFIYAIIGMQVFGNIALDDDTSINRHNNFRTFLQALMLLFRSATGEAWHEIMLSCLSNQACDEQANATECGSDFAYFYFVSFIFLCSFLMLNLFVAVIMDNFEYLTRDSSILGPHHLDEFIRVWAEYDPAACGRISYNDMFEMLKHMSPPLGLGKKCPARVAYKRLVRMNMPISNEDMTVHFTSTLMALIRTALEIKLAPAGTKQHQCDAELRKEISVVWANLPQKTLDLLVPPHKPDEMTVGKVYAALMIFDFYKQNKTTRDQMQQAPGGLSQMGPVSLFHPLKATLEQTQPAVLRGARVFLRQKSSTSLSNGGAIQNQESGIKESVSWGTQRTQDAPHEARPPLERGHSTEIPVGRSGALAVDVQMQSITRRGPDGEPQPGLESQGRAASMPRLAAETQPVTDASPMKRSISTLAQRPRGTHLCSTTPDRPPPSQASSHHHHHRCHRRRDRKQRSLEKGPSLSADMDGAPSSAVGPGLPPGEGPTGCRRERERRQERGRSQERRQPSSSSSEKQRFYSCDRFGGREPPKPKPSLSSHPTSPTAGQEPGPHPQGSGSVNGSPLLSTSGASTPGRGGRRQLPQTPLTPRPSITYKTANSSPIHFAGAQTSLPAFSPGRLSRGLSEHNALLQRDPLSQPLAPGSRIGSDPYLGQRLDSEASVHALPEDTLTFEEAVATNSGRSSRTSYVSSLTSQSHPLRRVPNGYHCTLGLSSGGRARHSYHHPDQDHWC
T1 sequence (P54289 25-1103, further chain): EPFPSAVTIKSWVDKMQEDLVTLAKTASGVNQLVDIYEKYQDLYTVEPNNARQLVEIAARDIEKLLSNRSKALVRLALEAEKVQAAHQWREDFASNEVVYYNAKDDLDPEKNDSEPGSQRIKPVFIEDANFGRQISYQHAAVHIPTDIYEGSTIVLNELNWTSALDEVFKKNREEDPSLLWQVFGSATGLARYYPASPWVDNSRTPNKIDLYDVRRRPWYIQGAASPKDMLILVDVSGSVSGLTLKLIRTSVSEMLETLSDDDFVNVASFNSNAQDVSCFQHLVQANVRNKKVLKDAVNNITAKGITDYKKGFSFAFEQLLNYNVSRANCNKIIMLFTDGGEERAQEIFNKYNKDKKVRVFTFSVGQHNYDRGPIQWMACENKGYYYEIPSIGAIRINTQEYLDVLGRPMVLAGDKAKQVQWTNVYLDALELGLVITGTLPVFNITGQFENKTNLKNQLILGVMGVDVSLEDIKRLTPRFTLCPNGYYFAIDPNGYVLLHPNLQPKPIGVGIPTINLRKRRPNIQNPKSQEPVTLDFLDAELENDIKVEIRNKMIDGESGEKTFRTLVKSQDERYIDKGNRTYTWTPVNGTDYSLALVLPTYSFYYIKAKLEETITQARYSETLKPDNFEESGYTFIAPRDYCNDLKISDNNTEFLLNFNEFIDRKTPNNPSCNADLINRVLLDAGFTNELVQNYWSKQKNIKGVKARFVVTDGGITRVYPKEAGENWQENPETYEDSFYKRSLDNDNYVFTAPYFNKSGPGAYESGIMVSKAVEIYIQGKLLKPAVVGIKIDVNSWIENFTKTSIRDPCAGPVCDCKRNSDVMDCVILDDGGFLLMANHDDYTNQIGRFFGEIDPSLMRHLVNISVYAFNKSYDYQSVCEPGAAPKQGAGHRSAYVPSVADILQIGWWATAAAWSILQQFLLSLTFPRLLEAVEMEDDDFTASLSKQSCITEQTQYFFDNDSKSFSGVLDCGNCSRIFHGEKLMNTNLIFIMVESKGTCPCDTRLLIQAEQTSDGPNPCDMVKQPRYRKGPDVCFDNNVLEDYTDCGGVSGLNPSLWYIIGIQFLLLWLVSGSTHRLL
T1 sequence (P54284 whole entry, further chain): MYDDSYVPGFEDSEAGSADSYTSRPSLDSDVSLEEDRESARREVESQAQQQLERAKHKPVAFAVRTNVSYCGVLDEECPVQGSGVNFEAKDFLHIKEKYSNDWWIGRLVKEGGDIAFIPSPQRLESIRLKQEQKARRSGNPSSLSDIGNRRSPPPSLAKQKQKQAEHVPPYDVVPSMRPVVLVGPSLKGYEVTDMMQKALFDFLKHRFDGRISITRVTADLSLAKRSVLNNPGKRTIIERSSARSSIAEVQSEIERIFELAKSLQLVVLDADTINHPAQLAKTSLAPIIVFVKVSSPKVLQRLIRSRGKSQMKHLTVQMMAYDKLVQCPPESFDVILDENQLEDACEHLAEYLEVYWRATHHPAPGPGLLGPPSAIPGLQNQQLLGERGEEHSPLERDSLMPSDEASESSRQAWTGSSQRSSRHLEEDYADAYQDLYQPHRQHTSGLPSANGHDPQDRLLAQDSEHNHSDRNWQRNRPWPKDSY

Row | SMILES | inhibition at 3 µM [%]
1 | Cc1c(-c2ccc(Cl)cc2)c(C(=O)N2CC[S+]([O-])CC2)n(Cc2ccccc2)c1C(F)(F)F [SC-19, [1-Benzyl-3-(4-chlorophenyl)-4-methyl-5-(trifluoromethyl)-1H-pyrrol-2-yl]-(1-oxo-[1,4]thiazinan-4-yl)-methanone] | > 95
2 | Cc1c(-c2ccc(Cl)cc2)c(C(=O)N2CCOC(CO)C2)n(Cc2ccccc2)c1C(F)(F)F (centres unmarked) [SC-20, [1-Benzyl-3-(4-chlorophenyl)-4-methyl-5-(trifluoromethyl)-1H-pyrrol-2-yl]-[2-(hydroxymethyl)-morpholin-4-yl]-methanone] | 75 to 95
3 | Cc1c(-c2ccc(Cl)cc2)c(C(=O)N(C)CC2CCOCC2)n(Cc2ccccc2)c1C(F)(F)F [SC-21, 1-Benzyl-3-(4-chlorophenyl)-N,4-dimethyl-N-(tetrahydro-pyran-4-yl-methyl)-5-(trifluoromethyl)-1H-pyrrole-2-carboxylic acid amide] | > 95
4 | CNC(=O)c1c(-c2ccc(Cl)cc2)c(C)c(C(F)(F)F)n1Cc1ccccc1 [SC-22, 1-Benzyl-3-(4-chlorophenyl)-N,4-dimethyl-5-(trifluoromethyl)-1H-pyrrole-2-carboxylic acid amide] | 75 to 95
5 | Cc1c(-c2ccc(Cl)cc2)c(C(=O)N2CCC(O)C2)n(Cc2ccccc2)c1C(F)(F)F (centres unmarked) [SC-23, [1-Benzyl-3-(4-chlorophenyl)-4-methyl-5-(trifluoromethyl)-1H-pyrrol-2-yl]-(3-hydroxy-pyrrolidin-1-yl)-methanone] | 75 to 95
6 | Cc1c(-c2ccc(Cl)cc2)c(C(=O)N(C)CCO)n(Cc2ccccc2)c1C(F)(F)F [SC-24, 1-Benzyl-3-(4-chlorophenyl)-N-(2-hydroxy-ethyl)-N,4-dimethyl-5-(trifluoromethyl)-1H-pyrrole-2-carboxylic acid amide] | > 95
7 | Cc1c(-c2ccc(Cl)cc2)c(C(=O)N2CCOCC2)n(Cc2cccc(Cl)c2)c1C(F)(F)F [SC-25, [3-(4-Chlorophenyl)-1-[(3-chlorophenyl)-methyl]-4-methyl-5-(trifluoromethyl)-1H-pyrrol-2-yl]-morpholin-4-yl-methanone] | 75 to 95
8 | Cc1c(-c2ccc(Cl)cc2)c(C(=O)N2CCS(=O)(=O)CC2)n(Cc2ccccc2)c1C(F)(F)F [SC-26, [1-Benzyl-3-(4-chlorophenyl)-4-methyl-5-(trifluoromethyl)-1H-pyrrol-2-yl]-(1,1-dioxo-[1,4]thiazinan-4-yl)-methanone] | 75 to 95
9 | Cc1c(-c2ccc(Cl)cc2)c(C(=O)N2CCNC(C)(C)C2)n(Cc2ccccc2)c1C(F)(F)F [SC-29, [1-Benzyl-3-(4-chlorophenyl)-4-methyl-5-(trifluoromethyl)-1H-pyrrol-2-yl]-(3,3-dimethyl-piperazin-1-yl)-methanone] | > 95
10 | COc1cccc(-n2c(C(=O)N3CC(F)(F)C3)c(-c3ccc(Cl)cc3)c(C)c2C(F)(F)F)c1 [SC-32, [3-(4-Chlorophenyl)-1-(3-methoxyphenyl)-4-methyl-5-(trifluoromethyl)-1H-pyrrol-2-yl]-(3,3-difluoro-azetidin-1-yl)-methanone] | 75 to 95
11 | Cc1c(-c2ccc(Cl)cc2)c(C(=O)N2CC(F)(F)C2)n(-c2cccc(Cl)c2)c1C(F)(F)F [SC-33, [1-(3-Chlorophenyl)-3-(4-chlorophenyl)-4-methyl-5-(trifluoromethyl)-1H-pyrrol-2-yl]-(3,3-difluoro-azetidin-1-yl)-methanone] | 75 to 95
12 | Cc1c(-c2ccc(Cl)cc2)c(C(=O)N(C)C2CC2)n(Cc2ccccc2)c1C(F)(F)F [SC-34, 1-Benzyl-3-(4-chlorophenyl)-N-cyclopropyl-N,4-dimethyl-5-(trifluoromethyl)-1H-pyrrole-2-carboxylic acid amide] | > 95
13 | Cc1c(-c2ccc(Cl)cc2)c(C(=O)NC2CC2)n(Cc2ccccc2)c1C(F)(F)F [SC-35, 1-Benzyl-3-(4-chlorophenyl)-N-cyclopropyl-4-methyl-5-(trifluoromethyl)-1H-pyrrole-2-carboxylic acid amide] | 75 to 95
14 | COC1(CNC(=O)c2c(-c3ccc(Cl)cc3)c(C)c(C(F)(F)F)n2Cc2ccccc2)CC1 [SC-36, 1-Benzyl-3-(4-chlorophenyl)-N-[(1-methoxy-cyclopropyl)-methyl]-4-methyl-5-(trifluoromethyl)-1H-pyrrole-2-carboxylic acid amide] | > 95
15 | CC(=O)NCCN(C)C(=O)c1c(-c2ccc(Cl)cc2)c(C)c(C(F)(F)F)n1Cc1ccccc1 [SC-37, N-(2-Acetylamino-ethyl)-1-benzyl-3-(4-chlorophenyl)-N,4-dimethyl-5-(trifluoromethyl)-1H-pyrrole-2-carboxylic acid amide] | > 95
16 | Cc1c(-c2ccc(Cl)cc2)c(C(=O)N(C)CCNS(C)(=O)=O)n(Cc2ccccc2)c1C(F)(F)F [SC-38, 1-Benzyl-3-(4-chlorophenyl)-N-[2-(methanesulfonamido)-ethyl]-N,4-dimethyl-5-(trifluoromethyl)-1H-pyrrole-2-carboxylic acid amide] | > 95
17 | Cc1c(-c2ccc(Cl)cc2)c(C(=O)N(C)C2CCN(C)CC2)n(Cc2ccccc2)c1C(F)(F)F [SC-39, 1-Benzyl-3-(4-chlorophenyl)-N,4-dimethyl-N-(1-methyl-piperidin-4-yl)-5-(trifluoromethyl)-1H-pyrrole-2-carboxylic acid amide] | > 95
18 | Cc1c(-c2ccc(Cl)cc2)c(C(=O)N2CCOC(C)(C)C2)n(Cc2ccccc2)c1C(F)(F)F [SC-40, [1-Benzyl-3-(4-chlorophenyl)-4-methyl-5-(trifluoromethyl)-1H-pyrrol-2-yl]-(2,2-dimethyl-morpholin-4-yl)-methanone] | > 95
19 | Cc1c(-c2ccc(Cl)cc2)c(C(=O)N2CCOCC2)n(Cc2ccccc2)c1C(F)F [SC-41, [1-Benzyl-3-(4-chlorophenyl)-5-(difluoro-methyl)-4-methyl-1H-pyrrol-2-yl]-morpholin-4-yl-methanone] | > 95
20 | Cc1c(-c2ccc(Cl)cc2)c(C(=O)N(C)CC(C)(C)C)n(Cc2ccccc2)c1C(F)F [SC-42, 1-Benzyl-3-(4-chlorophenyl)-5-(difluoro-methyl)-N-(2,2-dimethyl-propyl)-N,4-dimethyl-1H-pyrrole-2-carboxylic acid amide] | > 95
21 | Cc1c(-c2ccc(Cl)cc2)c(C(=O)N2CC(F)(F)C2)n(-c2ccc(Cl)cc2)c1C(F)(F)F [SC-44, [1,3-Bis(4-chlorophenyl)-4-methyl-5-(trifluoromethyl)-1H-pyrrol-2-yl]-(3,3-difluoro-azetidin-1-yl)-methanone] | 75 to 95
22 | Cc1c(-c2ccc(Cl)cc2)c(C(=O)N(C)C2(CO)CC2)n(Cc2ccccc2)c1C(F)(F)F [SC-48, 1-Benzyl-3-(4-chlorophenyl)-N-[1-(hydroxymethyl)-cyclopropyl]-N,4-dimethyl-5-(trifluoromethyl)-1H-pyrrole-2-carboxylic acid amide] | > 95
23 | Cc1c(-c2ccc(Cl)cc2)c(C(=O)N(C)C2(C(N)=O)CC2)n(Cc2ccccc2)c1C(F)(F)F [SC-49, 1-Benzyl-N-(1-carbamoyl-cyclopropyl)-3-(4-chlorophenyl)-N,4-dimethyl-5-(trifluoromethyl)-1H-pyrrole-2-carboxylic acid amide] | > 95
24 | Cc1c(-c2ccc(Cl)cc2)c(C(=O)N2CCOC(=O)C2)n(Cc2ccccc2)c1C(F)(F)F [SC-50, 4-[1-Benzyl-3-(4-chlorophenyl)-4-methyl-5-(trifluoromethyl)-1H-pyrrole-2-carbonyl]-morpholin-2-one] | 75 to 95
25 | Cc1c(-c2ccc(Cl)cc2)c(C(=O)N2CCOCC2)n(CCOc2ccc(F)cc2)c1C(F)(F)F [SC-51, [3-(4-Chlorophenyl)-1-[2-(4-fluoro-phenoxy)-ethyl]-4-methyl-5-(trifluoromethyl)-1H-pyrrol-2-yl]-morpholin-4-yl-methanone] | > 95
26 | CCOC(=O)C1(N(C)C(=O)c2c(-c3ccc(Cl)cc3)c(C)c(C(F)(F)F)n2Cc2ccccc2)CC1 [SC-52, 1[[1-Benzyl-3-(4-chlorophenyl)-4-methyl-5-(trifluoromethyl)-1H-pyrrole-2-carbonyl]-methyl-amino]-cyclopropane-1-carboxylic acid ethyl ester] | > 95
